In brackets after ≈: the same amount, converted by molar mass.
Key:
[1] = system: P. haemolytica 63-39 intraperitoneally infected mice; assay: Antiinfective test on infected mice
[2] = system: S. aureus FDA209P; assay: Minimum inhibition concentration (MIC), agar double dilution method; format: cell-based, Staphylococcus aureus; details: Staphylococcus aureus, Mueller hinton agar, read-out: MIC
Experimental: (§1) Test 1; Minimum Inhibition Concentration (MIC)
(§2) MIC was measured, based on the standard method of Japan Society of Chemotherapy, on a BHI agar medium (Brain heart-infusion agar, made by Difco Laboratories Inc.(USA)) with respect to Pasteurella and on a Mueller hinton agar medium (Mueller hinton agar, made by Difco, Laboratories Inc.(USA)) with respect to the other test bacteria in both cases according to the double dilution method.

[3] = system: bovine bacterial pneumonia (Mycoplasma, Ureaplasma and Pasteurella); assay: Clinical test against bovine bacterial pneumonia; format: in vivo, cattle; design: Average clinical score: scale not given here
Excerpt: Test 5: Clinical Test Against Bovine Bacterial Pneumonia
In this test, each drug was subcutaneously administered to cattle suffering from bacterial pneumonia (infectious diseases with Mycoplasma, Ureaplasma and Pasteurella), respectively, and the clinical effect of P-MT was compared with those of tilmicosin and C-9.
Tests are made on 17 case of one to two-month-old Holstein cattle (weight 56 to 101 kg) suffering from bacterial pneumonia caused by single or mixed infection of Pasteurella, Mycoplasma, Ureaplasma and Haemophilus (6 animals for each of P-MT and C-9 and 5 animals for tilmicosin). The drug was subcutaneously administered to the animals once a day in an amount of 10 mg/kg.
Three calves showing a similar degree of symptoms at the start of the test were arranged in one group. Each subject of the same group was respectively tested with one of the above three compounds. Ailing calves were successively grouped when being available.
Clinical findings, based on the daily observation from the time of the administration through the 5th day of the trial, were scored on each item according to the criteria in the table below. The clinical efficacy of the compounds was judged on the 5th day.
As to judgment based on the clinical symptoms, cases which could be judged among each group were classified into remarkably effective (85 to 100), effective (70 to under 85), a little effective (50 to under 70) and infective (under 50) according to the following improvement rate by clinical scores, and after summing up, the following effective rate was calculated, the difference in the effective rate among the groups was determined using a statistical method, and thus effectivity was judged. [formula]

[4] = system: ICR mice; assay: Toxicity test, intravenous or subcutaneous injection; format: in vivo; details: intravenous injection
[5] = system: S. aureus Smith (virulent strain); assay: microbe, parasite or virus in culture; format: cell-based, Staphylococcus aureus; details: Staphylococcus aureus
Experimental: as §1, §2

[6] = system: Past. multocida BOPO305 M-17; assay: Minimum inhibition concentration (MIC), agar double dilution method; format: cell-based, Pasteurella multocida; details: Pasteurella multocida, BOPO305M17; Past. multocida BOPO305 M-17, strain from a sheep; BHI agar; read-out: MIC
Experimental: as §1, §2

[7] = system: Past. multocida BSPO302 No. 6; assay: as above; format: cell-based, Pasteurella multocida; details: Pasteurella multocida, BSPO302NO.6; Past. multocida BSPO302 No. 6, strain from a pig; BHI agar; read-out: MIC
Experimental: as §1, §2

[8] = system: P. multocida; assay: Bacteria separation test from nasal cavity swab; format: in vivo, cattle
[9] = system: P. haemolytica; assay: Bacteria separation test from nasal cavity swab; format: in vivo, cattle
[10] = system: M. bovis; format: in vivo, cattle; details: nasal cavity swab
[11] = system: Ureaplasma; assay: Bacteria separation test from nasal cavity swab; format: in vivo, cattle
[12] = system: M. bovirhinis; assay: Bacteria separation test from nasal cavity swab; format: in vivo, cattle
[13] = system: Shigella dysenteriae JS11910; assay: Minimum inhibition concentration (MIC), agar double dilution method; format: cell-based; details: Shigella dysenteriae, JS11910
Experimental: as §1, §2

[14] = system: Enterobacter aerogenes ATCC13048; assay: as above; format: cell-based; details: Klebsiella aerogenes, Mueller hinton agar, read-out: MIC
Experimental: as §1, §2

[15] = system: Klebsiella pneumoniae PCI602; assay: as above; format: cell-based; details: Mueller hinton agar, read-out: MIC
Experimental: as §1, §2

[16] = system: Micrococcus luteus PCI1001; assay: as above; format: cell-based; details: Mueller hinton agar, read-out: MIC
Experimental: as §1, §2

[17] = system: Past haemolytica BBPO102 N811; assay: as above; format: cell-based, Pasteurella haemolytica; details: Mannheimia haemolytica, BBPO102N811
Experimental: as §1, §2

[18] = system: Past haemolytica BAPO103 S801; assay: as above; format: cell-based, Pasteurella haemolytica; details: Mannheimia haemolytica, BAPO103S801; Past haemolytica BAPO103 S801, strain from poultry; BHI agar; read-out: MIC
Experimental: as §1, §2

[19] = system: E. coli K-12 R-5; assay: as above; format: cell-based, Escherichia coli; details: Escherichia coli, K12R5, Mueller hinton agar, read-out: MIC
Experimental: as §1, §2

[20] = In vivo kinetics (absorption and excretion test) in mice; details: male, Slc ddY, mouse, sc, 5 mg/kg
[21] = system: P. haemolytica 63-39; assay: Sensitivity (MIC), agar plate dilution method; details: Mannheimia haemolytica, 6339
[22] = before administration (baseline)

For `CC[C@H]1OC(=O)C[C@@H](O)[C@H](C)[C@@H](O[C@@H]2O[C@H](C)C(O)C(N(C)C)C2O)[C@@H](CCN2CC(C)CC(C)C2)C[C@@H](C)C(=O)/C=C/C(C)=C/[C@@H]1CO[C@@H]1OC(C)C(O)[C@@H](OC)C1OC` (some centres unmarked) [Tilmicosin, tilmicosin], the ED50 ([1]; Mannheimia haemolytica, in Mus musculus, sc, 168 h, read-out: ED50 (95% confidence limit)) was 26.2 mg/kg, the “Surviving number after 7 days/test number” value ([1]; dose 1 mg/kg subcutaneous one hour after infection) was 0/10 and the “Surviving number after 7 days/test number” value ([1]; dose 5 mg/kg subcutaneous one hour after infection) was 0/10. The “Surviving number after 7 days/test number” value ([1]; dose 10 mg/kg subcutaneous one hour after infection) was 3/10, the “Surviving number after 7 days/test number” value ([1]; dose 20 mg/kg subcutaneous one hour after infection) was 4/10 and the “Surviving number after 7 days/test number” value ([1]; dose 30 mg/kg subcutaneous one hour after infection) was 5/10. For the same compound, the ED90 ([1]; probit method from surviving numbers after 7 days, subcutaneous) was 102.1 mg/kg, the MIC [2] was 0.39 µg/mL (≈ 0.449 µM) and the Average clinical score ([3]; 1 day after completion of administration, cattle, 10 mg/kg subcutaneous) was 3.5. It also gave an Average clinical score ([3]; 2 days after completion of administration) of 2.8, an Average clinical score ([3]; 3 days after completion of administration) of 2.2 and an Average clinical score ([3]; 4 days after completion of administration) of 2.7. The “Effective rate (%) in clinical effect” value ([3]; (remarkably effective + effective case number)/test case number × 100) was 40%, the “Average symptomatic improvement rate (%)” value ([3]; (score before − score after administration)/score before × 100) was 65.6% and the Average clinical score ([3]; at administration (baseline), cattle, 10 mg/kg subcutaneous) was 6.5. The “A little effective (%) (case number)” value ([3]; improvement rate 50 to under 70) was 20 (1) % (case number), the “Effective (%) (case number)” value ([3]; improvement rate 70 to under 85) was 0 (0) % (case number) and the “Remarkably effective (%) (case number)” value ([3]; improvement rate 85 to 100) was 40 (2) % (case number). The “Ineffective (%) (case number)” value ([3]; improvement rate under 50) was 40 (2) % (case number), the Dissection finding ([4]; 0.5 mg/mouse) was “immediate death” and the Dissection finding ([4]; 1.0 mg/mouse) was “immediate death”. The Dissection finding ([4]; 2.0 mg/mouse) was “immediate death”, the MIC [5] was 1.56 µg/mL (≈ 1.79 µM) and the MIC [6] was 6.25 µg/mL (≈ 7.19 µM). For the same compound, the MIC [7] was 6.25 µg/mL (≈ 7.19 µM), the “Separation rate (%) at completion (number of animal)” value (from here on “Separation rate (%) at completion”) ([8]; at completion) was 80 (4/5) % (number of animal) and the “Separation rate (%) before administration (number of animal)” value [8, 22] was 100 (5/5) % (number of animal). For the same compound, the “Separation rate (%) at completion” value ([9]; at completion) was 20 (1/5) % (number of animal), the “Separation rate (%) before administration (number of animal)” value [9, 22] was 20 (1/5) % (number of animal) and the “Separation rate (%) at completion” value ([10]; at completion) was 40 (2/5) % (number of animal). The “Separation rate (%) before administration (number of animal)” value [10, 22] was 40 (2/5) % (number of animal), the “Separation rate (%) at completion” value ([11]; at completion) was 60 (3/5) % (number of animal) and the “Separation rate (%) before administration (number of animal)” value [11, 22] was 100 (5/5) % (number of animal). For the same compound, the “Separation rate (%) at completion” value ([12]; at completion) was 60 (3/5) % (number of animal), the “Separation rate (%) before administration (number of animal)” value [12, 22] was 60 (3/5) % (number of animal) and the MIC [13] was 100 µg/mL (≈ 115 µM). The MIC [14] was 100 µg/mL (≈ 115 µM), the MIC [15] was 25 µg/mL (≈ 28.8 µM) and the MIC [16] was 0.2 µg/mL (≈ 0.23 µM). It also gave an MIC [17] of 1.56 µg/mL (≈ 1.79 µM), an MIC [18] of 50 µg/mL (≈ 57.5 µM) and an MIC [19] greater than 100 µg/mL. The concentration at 0.5 h ([20]; lung) was 310 ng/g, the concentration at 1 h ([20]; lung) was 350 ng/g and the concentration at 2 h ([20]; lung) was 310 ng/g. It also gave a concentration at 4 h ([20]; lung) of 230 ng/g, a concentration at 8 h ([20]; lung) of 195 ng/g and a concentration at 24 h ([20]; lung) of 60 ng/g. The concentration at 0.5 h ([20]; serum) was 230 ng/mL, the concentration at 1 h ([20]; serum) was 60 ng/mL and the concentration at 2 h ([20]; serum) was 50 ng/mL. It also gave a concentration at 4 h ([20]; serum) of 40 ng/mL and an MIC [21] of 3.13 µg/mL (≈ 3.6 µM).
